Experimental data reported in publication PMC10381184, “Unprecedented Antimicrobial and Cytotoxic Polyketides from Cultures of Diaporthe africana sp. nov” (Journal of Fungi, 2023).
Converted amounts (≈) assume the structure as drawn. Where two headings read alike, the source gives them in different places. Marks after values point to notes of the source that are not given here.

Columns and labels:
Assay type in all cases: cell-based
[1] = test system: Acinetobacter baumannii DSM 30008; assay: MIC serial dilution assay; parameters: key: (-): No inhibition; conditions: Acinetobacter baumanii, starting concentration 66.7 μg/mL
Experimental: (§1) The Minimum Inhibitory Concentration (MIC) of the isolated metabolites (1–8) was evaluated using serial dilution assays in a 96-well microtiter plate against a panel of Gram-positive bacteria, namely Bacillus subtilis DSM 10, Mycobacterium smegmatis ATCC 700084 and Staphylococcus aureus DSM 346; Gram-negative bacteria, including Acinetobacter baumannii DSM 30008, Chromobacterium violaceum DSM 30191, Escherichia coli DSM 1116 and Pseudomonas aeruginosa PA14 and fungal cultures of Candida albicans DSM 1665, Mucor hiemalis DSM 2656, Rhodotorula glutinis DSM 10134, Schizosaccharomyces pombe DSM 70572 and Wickerhamomyces anomalus DSM 6766, according to previously described protocols. The MTT-based cytotoxicity assay was performed against several cancer cell lines (human endocervical adenocarcinoma KB 3.1, mouse fibroblasts L929, squamous cancer A431, breast cancer MCF-7, lung cancer A549, ovary cancer SK-OV-3, and prostate cancer PC-3) in accordance with our previously established protocols.

[2] = test system: Bacillus subtilis DSM 10; assay: MIC serial dilution assay; parameters: key: (-): No inhibition
Experimental: as §1

[3] = test system: Candida albicans DSM 1665; assay: MIC serial dilution assay; parameters: key: (-): No inhibition; conditions: starting concentration 66.7 μg/mL
Experimental: as §1

[4] = test system: Chromobacterium violaceum DSM 30191; assay: MIC serial dilution assay; parameters: key: (-): No inhibition; conditions: starting concentration 66.7 μg/mL
Experimental: as §1

[5] = test system: Escherichia coli DSM 1116; assay: MIC serial dilution assay; parameters: key: (-): No inhibition; conditions: starting concentration 66.7 μg/mL
Experimental: as §1

[6] = test system: Mucor hiemalis DSM 2656; assay: MIC serial dilution assay; parameters: key: (-): No inhibition
Experimental: as §1

[7] = test system: Mycobacterium smegmatis ATCC 700084; assay: MIC serial dilution assay; parameters: key: (-): No inhibition
Experimental: as §1

[8] = test system: Pseudomonas aeruginosa PA14; assay: MIC serial dilution assay; parameters: key: (-): No inhibition
Experimental: as §1

[9] = test system: Rhodotorula glutinis DSM 10134; assay: MIC serial dilution assay; parameters: key: (-): No inhibition; conditions: Rhodoturula glutinis, starting concentration 66.7 μg/mL
Experimental: as §1

[10] = test system: Schizosaccharomyces pombe DSM 70572; assay: MIC serial dilution assay; parameters: key: (-): No inhibition
Experimental: as §1

[11] = test system: Staphylococcus aureus DSM 346; assay: MIC serial dilution assay; parameters: key: (-): No inhibition
Experimental: as §1

[12] = test system: Wickerhamomyces anomalus DSM 6766; assay: MIC serial dilution assay; parameters: key: (-): No inhibition; conditions: starting concentration 66.7 μg/mL
Experimental: as §1

[13] = test system: human endocervical adenocarcinoma KB 3.1; assay: MTT-based cytotoxicity assay
Experimental: as §1

[14] = test system: mouse fibroblasts L929; assay: MTT-based cytotoxicity assay
Experimental: as §1

[15] = test system: panel of bacteria and fungi; assay: Antimicrobial serial dilution assay, whole panel; conditions: result in words
Experimental: as §1

[16] = test system: breast cancer MCF-7; assay: MTT-based cytotoxicity assay
Experimental: as §1

[17] = test system: lung cancer A549; assay: MTT-based cytotoxicity assay
Experimental: as §1

[18] = test system: ovary cancer SK-OV-3; assay: MTT-based cytotoxicity assay
Experimental: as §1

[19] = test system: prostate cancer PC-3; assay: MTT-based cytotoxicity assay
Experimental: as §1

[20] = test system: squamous cancer A431; assay: MTT-based cytotoxicity assay
Experimental: as §1

[21] = DSM10, starting concentration 66.7 μg/mL, read-out: MIC
[22] = DSM2656, starting concentration 66.7 μg/mL, read-out: MIC
[23] = starting concentration 66.7 μg/mL
[24] = DSM346, starting concentration 66.7 μg/mL, read-out: MIC
[25] = Homo sapiens, KB 3-1, KB3.1, starting concentration 37 µg/mL, read-out: IC50
[26] = Mus musculus, starting concentration 37 µg/mL, read-out: IC50
[27] = Rhodotorula glutinis, DSM10134, read-out: MIC
[28] = DSM70572, starting concentration 66.7 μg/mL, read-out: MIC
[29] = PC-3, starting concentration 37 µg/mL, read-out: IC50
[30] = starting concentration 37 µg/mL, read-out: IC50

Compound	MIC [1]	MIC [2, 21]	MIC [3]	MIC [4]	MIC [5]	MIC [6, 22]	MIC [7, 23]	MIC [8, 23]	MIC [9]	MIC [10, 23]	MIC [11, 24]	MIC [12]	IC50 [13, 25]	IC50 [14, 26]	further results
CC(C)=CCc1ccc(O)c2c1C(O)(c1cc(C)cc3c1O[C@H](C(C)(C)O)CO3)OC2 (mixture of isomers) [Compound 3, isoprenylisobenzofuran C1/C2]	-	33.3 µg/mL	-	-	-	66.6 µg/mL	-	-	-	-	33.3 µg/mL	-	32.9 µM	51.6 µM	
CC(C)=CCc1ccc(O)c2c1C(c1cc(C)cc3c1O[C@H](C(C)(C)O)CO3)NC2=O (mixture of isomers) [Compound 5, diaporisoindole A/B]	-	66.6 µg/mL	-	-	-	66.6 µg/mL	-	-			66.6 µg/mL	-	22 µM	54.4 µM	MIC [9, 27]: 66.6 µg/mL; MIC [10, 28]: 33.3 µg/mL
O=C(O)c1cn(C2CC2)c2cc(N3CCNCC3)c(F)cc2c1=O [Ciprobay, reference compound]															MIC ([1]; Acinetobacter baumannii, DSM30008, read-out: MIC): 0.26 µg/mL (≈ 0.785 µM)
CC(C)=CCc1ccc(O)c2c1C(O)(c1cc(C)cc3c1OC(C(C)(C)O)CO3)OC2=O (centres unmarked) [Compound 2, isoprenylisobenzofuran B]	-		-	-	-		-	-	-	-		-	> 84 µM	> 84 µM	MIC [2, 23]: -; MIC [6, 23]: -; MIC [11, 23]: -; IC50 ([13]; KB3.1, starting concentration 37 µg/mL): slight inhibition; antimicrobial activity against the tested microorganisms [15]: no activity
CC(C)=CCc1ccc(O)c2c1C(O)(c1cc(C)cc3c1O[C@H](C(C)(C)O)CO3)NC2=O (some centres unmarked) [Compound 4, diaporisoindole F1/F2]	-	66.6 µg/mL (≈ 152 µM)	-	-	-	33.3 µg/mL (≈ 75.8 µM)	-	-			66.6 µg/mL (≈ 152 µM)	-	31.9 µM	59.2 µM	MIC [9, 27]: 33.3 µg/mL (≈ 75.8 µM); MIC [10, 28]: 33.3 µg/mL (≈ 75.8 µM)
CCC(C)C=C(C)C=CC1=CC2=C(Cl)C(=O)C3(C)OC(=O)C(C(C)O)C3C2=CO1 (centres unmarked) [Compound 7, isochromophilonol A1/A2]	-	16.6 µg/mL (≈ 39.6 µM)	-	-	-	8.3 µg/mL (≈ 19.8 µM)		-	-	-	66.6 µg/mL (≈ 159 µM)	-	5.3 µM	12.9 µM	MIC ([7]; Mycolicibacterium smegmatis, ATCC700084, starting concentration 66.7 μg/mL, read-out: MIC): 16.6 µg/mL (≈ 39.6 µM); IC50 ([16]; Homo sapiens, MCF7, MCF-7, starting concentration 37 µg/mL, read-out: IC50): 900 nM; IC50 ([17]; Homo sapiens, starting concentration 37 µg/mL, read-out: IC50): 2.3 µM; IC50 ([18]; Homo sapiens, SK-OV-3, SKOV-3, starting concentration 37 µg/mL, read-out: IC50): 3.3 µM; IC50 [19, 29]: 1.1 µM; IC50 ([20]; Homo sapiens, A-431, A431, starting concentration 37 µg/mL, read-out: IC50): 4.1 µM
C/C(=C\c1csc(C)n1)[C@@H]1C[C@@H]2O[C@]2(C)CCC[C@H](C)[C@H](O)[C@@H](C)C(=O)C(C)(C)[C@@H](O)CC(=O)O1 [Epothilone B, reference compound]															IC50 ([16]; Homo sapiens, MCF7): 0.061 nM; IC50 ([13]; Homo sapiens, KB 3-1): 4.5e-05 µM; IC50 ([17]; Homo sapiens): 6.9e-05 µM; IC50 ([14]; Mus musculus): 0.00043 µM; IC50 ([18]; Homo sapiens, SK-OV-3): 9.9e-05 µM; IC50 [19]: 7.3e-05 µM; IC50 ([20]; Homo sapiens, A-431): 5.5e-05 µM
CNC(C)C1CCC(N)C(OC2C(N)CC(N)C(OC3OCC(C)(O)C(NC)C3O)C2O)O1 (centres unmarked) [Gentamicin, reference compound]															MIC ([8]; PA14, starting concentration 66.7 μg/mL, read-out: MIC): 0.21 µg/mL (≈ 0.44 µM)
NC[C@H]1O[C@H](O[C@H]2[C@H](O)[C@@H](O[C@H]3O[C@H](CO)[C@@H](O)[C@H](N)[C@H]3O)[C@H](N)C[C@@H]2N)[C@H](O)[C@@H](O)[C@@H]1O [Kanamycin, reference compound]							1.7 ^k µg/mL								
C[C@@H]1[C@H](O)[C@@H](C)/C=C/C=C/CC/C=C/C=C/C=C/C=C/C(O[C@H]2O[C@H](C)[C@@H](O)[C@H](N)[C@@H]2O)CC2O[C@](O)(CC(O)C(O)CCC(O)CC(O)CC(O)CC(=O)O[C@H]1C)CC(O)C2C(=O)O (some centres unmarked) [Nystatin, reference compound]			16.6 ^n µg/mL						4.2 ^n µg/mL	8.3 ^n µg/mL		8.3 ^n µg/mL			MIC [6, 23]: 8.3 ^n µg/mL; MIC ([6]; starting concentration 66.7 μg/mL, listed as nystatin): 8.3 µg/mL (≈ 8.96 µM)
CN(C)[C@@H]1C(=O)C(C(N)=O)=C(O)[C@@]2(O)C(=O)C3=C(O)c4c(O)cccc4[C@@](C)(O)[C@H]3[C@H](O)[C@@H]12 [Oxytetracyclin, reference compound]				0.83 ^o µg/mL	1.7 ^o µg/mL										MIC [2, 23]: 8.3 ^o µg/mL; MIC [11, 23]: 0.83 ^o µg/mL
beauvericin [Compound 8]	-		-	-	-		8.3 µg/mL	-	66.6 µg/mL	33.3 µg/mL		-			MIC [2, 23]: 8.3 µg/mL; MIC [6, 23]: 66.6 µg/mL; MIC [11, 23]: 8.3 µg/mL; IC50 ([16]; MCF-7, starting concentration 37 µg/mL, read-out: IC50): 2000 nM; IC50 ([13]; KB3.1, starting concentration 37 µg/mL, read-out: IC50): 2.3 µM; IC50 [17, 30]: 2.6 µM; IC50 [14, 30]: 2.8 µM; IC50 ([18]; SKOV-3, starting concentration 37 µg/mL, read-out: IC50): 3.3 µM; IC50 [19, 29]: 1.9 µM; IC50 ([20]; A431, starting concentration 37 µg/mL, read-out: IC50): 2.4 µM
